Values joined by “and” are separate entries in the source; they are usually repeats but may differ in a detail not shown here. Equal values may be shown once.
Tested on: anterior chamber aqueous humor pressure load rat model
Test: Retinal thickness (IPL, INL, ONL) in retinal damage model induced by anterior chamber aqueous humor pressure load
Type: in vivo, Rat; Slc: SD
Protocol: • Name: Compound 9 • Source: Synthesized in the above Examples • Used amount: 0.4 mL (50 mg/mL solution) • Storage conditions: Freezing, light shielding
Method for preparing test substance (1 mg/mL): A high concentration solution prepared at 50 mg/mL was diluted 50 times with a medium to prepare a 1 mg/mL administration solution.
• Name: MK-801 • Distributor: SIGMA-ALDRICH • Use amount: 0.0501 g • Storage condition: refrigerated (2° C. to 8° C.)
Method for preparing positive control substance (10 mg/mL): 0.0501 g was weighed out and made up to a total volume of 5 mL with a control substance (physiological saline).
• Species and strains: Rat; Slc: SD • Number of animals on arrival and sex: 50 males • Age in weeks at arrival: 6 weeks old • Body weight range at arrival: 147.2 to 170.0 g • Source: Japan SLC, Inc.
Grouping was performed two days before the first creation of the retinal damage model induced by an anterior chamber aqueous humor pressure load. Using the daily body weight as an index, stratified random allocation was performed using SAS (Ver. 9.3, SAS Institute Japan Ltd.) and EXSUS (Ver. 8.0, CAC Croit Corporation) so that an average value of the body weights of each group was approximately uniform.
• Administration route: Eyedrop administration, intravenous administration • Administration method (eyedrop): Eyedrop administration was performed on a treated eye (right eye) of a rat using a micropipette 4 times a day (at intervals of 1.5 hours or more). • Administration method (intravenous): The amount of administration solution, calculated from the body weight on the day of administration, was administered from the tail vein using a syringe and an injection needle about 30 minutes before ischemic load. • Time of administration: Administration was performed according to the following schedule.
1. 10 mg/kg xylazine hydrochloride was intramuscularly administered on the model creation day (day 0). A rat was placed in an anesthesia box and subjected to general anesthesia with isoflurane (5%, oxygen:nitrous oxide=1:3). When anesthesia was effective, the rat was taken out of the anesthesia box, an inhalation anesthetic mask was worn, and anesthesia was maintained with isoflurane (1% to 5%, oxygen nitrous oxide=1:3).
2. The body temperature was maintained at 37° C. with a warming mat, and a mydrin P ophthalmic solution was instilled in the right eye (treated eye) of the rat to dilate the pupil, then the cravit ophthalmic solution 1.5% (Santen Pharmaceutical Co., Ltd.) was instilled.
3. A bottle of an IV bag containing physiological saline was previously suspended so that a water surface was 155 cm (100 mmHg or more) higher than the eye of the rat. The IV bag was connected to a pediatric infusion set (Terumo Corporation), a 27 G injection needle thereof was inserted into and fixed to the anterior chamber while slightly dripping the liquid from a needle tip. The model was created in the light phase (6:00 to 18:00) in consideration of the diurnal variation of the intraocular pressure.
4. After the needle was inserted into the anterior chamber, pressure (100 mmHg or more) was loaded and maintained in the anterior chamber by associating the reflux system.
5. After an ischemic load for 45 minutes, the injection needle and the like were removed, the inhalation anesthetic mask was removed, and the rat was sufficiently woken up under a warming mat, and then returned to the cage.
6. For 2 days after surgery, 10 mg/kg xylazine hydrochloride was intramuscularly administered as an analgesic for the purpose of alleviating the pain after the treatment.
1. Fourteen days after model creation, general anesthesia was performed with isoflurane (5%, oxygen:nitrous oxide=1:3), euthanasia was then performed by exsanguination, a suture was placed as a marker at the 12 o'clock position of the ocular conjunctiva, and eyeball enucleation was performed.
2. […]

[1] = 900 μm from optic disk, (pre) 1 mg/mL eye drop 4 times/day on the 2 days before model creation (test group 2), 14 days after model creation, mean ± S.E., 10 animals, listed as compound 9
[2] = compound 9 (pre), 1 mg/mL eye drop, right eye, individual animals 201-210

CC[C@@]1(C)Oc2cc(ccc2O)C[C@H](NC)C(=O)N[C@@H](C(C)C)C(=O)N[C@@H]1C(=O)N[C@@H](CC(=O)O)C(=O)O [Compound 9]
Thickness of ONL (μm) (900 μm from optic disk, (pre) 1 mg/mL eye drop 4 times/day on the 2 days before model creation (test group 2), 14 days after model creation, mean ± S.E., 10 animals): 42.55±1.13 μm | Thickness of INL (μm) [1]: 30.39 ± 1.24 μm | Thickness of ONL (μm) [1]: 42.55 ± 1.13 μm | Inhibitory effect on retinal damage induced by ischemia of aqueous humor pressure load (anterior chamber aqueous humor pressure load rat model, overall conclusion): inhibitory effect on retinal damage induced by ischemia of aqueous humor pressure load was observed | Thickness of ONL, distance from optic disk 600 μm (single measurement) [2]: 41.121 μm and 44.598 μm and 41.326 μm (2×) and 41.066 μm and 41.161 μm and 38.743 μm and 41.131 μm and 38.275 μm and 37.963 μm and 43.645 μm and 43.106 μm and 45.168 μm and 47.317 μm and 40.325 μm and 41.137 μm and 43.653 μm and 45.150 μm and 48.296 μm and 46.805 μm and 44.685 μm and 46.160 μm and 42.772 μm and 45.479 μm and 40.612 μm and 40.588 μm and 46.031 μm and 41.299 μm and 42.932 μm and 48.910 μm | Thickness of ONL, distance from optic disk 900 μm (single measurement) [2]: 39.011 μm and 42.742 μm and 45.091 μm and 47.744 μm and 45.684 μm and 43.996 μm and 37.237 μm and 36.389 μm and 38.143 μm and 43.578 μm and 39.518 μm and 41.375 μm and 35.794 μm and 34.452 μm and 41.663 μm and 42.383 μm and 44.814 μm and 41.883 μm and 43.824 μm and 46.139 μm and 43.354 μm and 38.661 μm and 41.202 μm and 40.552 μm and 46.165 μm and 45.398 μm and 48.471 μm and 47.795 μm and 47.248 μm and 46.278 μm | Thickness of ONL, distance from optic disk 300 μm (single measurement) (compound 9 (pre), 1 mg/mL eye drop, right eye, individual animals 201-210, aqueous humor pressure load rat model): 50.813 μm and 51.311 μm and 53.250 μm and 34.452 μm and 30.709 μm and 34.312 μm and 40.039 μm and 41.413 μm and 11.468 μm and 39.811 μm and 37.328 μm and 39.938 μm and 33.741 μm and 35.794 μm and 35.603 μm and 42.742 μm and 44.362 μm and 44.355 μm and 36.433 μm and 40.355 μm and 37.980 μm and 39.617 μm and 40.341 μm and 39.065 μm and 40.883 μm and 41.062 μm and 40.112 μm and 37.690 μm and 36.851 μm and 39.911 μm | Thickness of INL (μm), Distance from Optic Disk 300 μm (compound 9 (pre), 1 mg/mL eye drop, right eye, 300 μm from optic disk, individual measurements per animal): 33.065 μm (2×) and 33.507 μm and 34.677 μm and 27.561 μm and 24.567 μm and 22.703 μm and 32.389 μm and 34.110 μm and 29.740 μm and 25.207 μm and 23.667 μm and 23.845 μm and 26.312 μm and 23.484 μm and 24.843 μm and 33.881 μm and 35.521 μm and 29.211 μm and 29.882 μm and 27.608 μm and 23.876 μm and 25.810 μm and 24.277 μm and 32.198 μm and 33.996 μm and 30.756 μm and 28.424 μm and 29.579 μm and 30.220 μm | Thickness of IPL (μm), Distance from Optic Disk 300 μm (compound 9 (pre), 1 mg/mL eye drop, right eye, 300 μm from optic disk, individual measurements per animal, listed as compond 9): 30.656 μm and 25.003 μm and 29.032 μm and 29.077 μm and 33.909 μm (2×) and 31.903 μm and 34.939 μm and 37.800 μm and 36.389 μm and 29.133 μm and 28.638 μm and 29.937 μm and 29.144 μm (2×) and 35.013 μm and 33.871 μm and 31.072 μm and 34.110 μm and 29.907 μm and 35.630 μm and 33.931 μm and 27.028 μm and 28.472 μm and 34.310 μm and 34.680 μm and 32.998 μm and 28.183 μm and 25.310 μm and 26.057 μm | Thickness of INL (μm), Distance from Optic Disk 300 μm, Mean (compound 9 (pre), 1 mg/mL eye drop, right eye, 300 μm from optic disk, mean per animal): 33.750 μm and 24.944 μm and 32.080 μm and 24.240 μm and 24.880 μm and 34.156 μm and 28.900 μm and 24.654 μm and 32.317 μm and 29.408 μm | Thickness of IPL (μm), Distance from Optic Disk 300 μm, Mean (compound 9 (pre), 1 mg/mL eye drop, right eye, 300 μm from optic disk, mean per animal, listed as compond 9): 28.230 μm and 31.630 μm and 36.376 μm and 29.236 μm and 31.100 μm and 32.951 μm and 33.216 μm and 29.810 μm and 33.996 μm and 26.517 μm | Thickness of INL (μm), Distance from Optic Disk 600 μm (compound 9 (pre), 1 mg/mL eye drop, right eye, 600 μm from optic disk, individual measurements per animal): 33.065 μm and 33.351 μm and 31.150 μm and 27.855 μm and 34.827 μm and 31.493 μm and 24.207 μm and 30.656 μm and 26.506 μm and 25.323 μm and 34.640 μm and 33.153 μm and 30.688 μm and 31.462 μm and 25.000 μm and 25.819 μm and 36.789 μm and 36.469 μm and 35.907 μm and 35.051 μm and 38.781 μm and 30.223 μm and 27.431 μm and 28.512 μm and 22.710 μm and 34.691 μm and 32.298 μm and 28.240 μm and 38.410 μm and 32.790 μm | Thickness of IPL (μm), Distance from Optic Disk 600 μm (compound 9 (pre), 1 mg/mL eye drop, right eye, 600 μm from optic disk, individual measurements per animal, listed as compond 9): 35.272 μm and 36.967 μm and 39.787 μm and 38.516 μm and 42.129 μm and 44.421 μm and 35.566 μm and 35.907 μm and 34.333 μm and 35.134 μm and 37.963 μm and 38.006 μm and 42.772 μm and 42.744 μm and 37.116 μm and 32.671 μm and 45.118 μm and 45.778 μm and 34.473 μm and 36.322 μm and 37.125 μm and 37.847 μm and 44.472 μm and 36.393 μm and 35.013 μm and 40.678 μm and 44.362 μm and 37.009 μm and 45.280 μm and 36.469 μm | Thickness of INL (μm), Distance from Optic Disk 600 μm, Mean (compound 9 (pre), 1 mg/mL eye drop, right eye, 600 μm from optic disk, mean per animal): 35.066 μm and 29.743 μm and 31.250 μm and 27.792 μm and 24.846 μm and 34.161 μm and 31.483 μm and 26.353 μm and 37.223 μm and 34.583 μm | Thickness of IPL (μm), Distance from Optic Disk 600 μm, Mean (compound 9 (pre), 1 mg/mL eye drop, right eye, 600 μm from optic disk, mean per animal, listed as compond 9): 36.455 μm and 38.717 μm and 43.674 μm and 35.955 μm and 34.827 μm and 38.882 μm and 43.293 μm and 35.599 μm and 45.392 μm and 35.755 μm | Thickness of INL (μm), Distance from Optic Disk 900 μm (compound 9 (pre), 1 mg/mL eye drop, right eye, 900 μm from optic disk, individual measurements per animal): 34.804 μm and 34.579 μm and 36.245 μm and 30.909 μm and 31.452 μm and 30.862 μm and 27.037 μm and 29.926 μm (2×) and 22.638 μm and 25.416 μm and 27.482 μm and 24.116 μm and 23.512 μm and 24.261 μm and 34.939 μm and 35.346 μm and 31.197 μm and 28.785 μm and 32.162 μm and 30.368 μm and 28.858 μm and 27.378 μm and 29.877 μm and 36.469 μm and 34.623 μm and 36.346 μm and 31.402 μm and 31.035 μm and 29.653 μm | Thickness of IPL (μm), Distance from Optic Disk 900 μm (compound 9 (pre), 1 mg/mL eye drop, right eye, 900 μm from optic disk, individual measurements per animal, listed as compond 9): 36.789 μm and 36.607 μm and 39.836 μm and 44.120 μm and 43.136 μm and 43.354 μm and 44.421 μm and 42.075 μm and 41.663 μm and 37.132 μm and 35.896 μm and 35.907 μm and 36.540 μm and 39.019 μm and 40.323 μm and 10.804 μm and 39.318 μm and 42.252 μm and 44.289 μm and 46.476 μm and 47.334 μm and 41.468 μm and 39.312 μm and 40.445 μm and 49.477 μm and 48.242 μm and 50.923 μm and 38.230 μm and 37.912 μm and 42.098 μm | Thickness of INL (μm), Distance from Optic Disk 900 μm, Mean (compound 9 (pre), 1 mg/mL eye drop, right eye, 900 μm from optic disk, mean per animal): 35.209 μm and 31.074 μm and 28.963 μm and 25.179 μm and 23.963 μm and 33.827 μm and 30.438 μm and 28.704 μm and 35.813 μm and 30.697 μm | Thickness of IPL (μm), Distance from Optic Disk 900 μm, Mean (compound 9 (pre), 1 mg/mL eye drop, right eye, 900 μm from optic disk, mean per animal, listed as compond 9): 37.744 μm and 43.537 μm and 42.720 μm and 36.312 μm and 38.627 μm and 40.791 μm and 46.033 μm and 40.408 μm and 49.547 μm and 39.413 μm
